Data taken from PMC12155096 (International Journal of Molecular Sciences, 2025).
Where a name gives a salt, the structure may show the parent alone. Read-outs that look alike come from different tables or passages of the source.

Columns and labels:
[1] = target: T1, human CYP1A2 (Homo sapiens, UniProt P05177); assay: biochemical
T1 sequence (P05177 1-516): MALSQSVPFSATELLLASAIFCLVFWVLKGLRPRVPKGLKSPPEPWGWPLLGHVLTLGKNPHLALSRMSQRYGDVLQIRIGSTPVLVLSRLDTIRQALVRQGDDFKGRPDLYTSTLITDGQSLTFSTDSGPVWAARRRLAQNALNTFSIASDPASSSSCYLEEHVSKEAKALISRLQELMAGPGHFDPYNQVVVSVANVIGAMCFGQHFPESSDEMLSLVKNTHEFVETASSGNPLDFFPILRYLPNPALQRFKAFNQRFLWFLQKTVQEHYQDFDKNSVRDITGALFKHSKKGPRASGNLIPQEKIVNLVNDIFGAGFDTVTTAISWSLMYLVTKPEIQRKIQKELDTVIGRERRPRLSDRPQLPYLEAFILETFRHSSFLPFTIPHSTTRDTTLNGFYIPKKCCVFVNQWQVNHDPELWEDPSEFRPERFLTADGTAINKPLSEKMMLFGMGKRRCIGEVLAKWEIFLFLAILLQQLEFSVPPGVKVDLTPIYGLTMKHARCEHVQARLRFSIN

[2] = target: T2, human CYP2C9 (Homo sapiens, UniProt P11712); assay: biochemical
[3] = target: T3, human CYP2C19 (Homo sapiens, UniProt P33261); assay: biochemical
[4] = target: human CYP2D6 (Homo sapiens, UniProt P10635); assay: biochemical
[5] = target: CYP3A4 (Homo sapiens, UniProt P08684); assay: biochemical
[6] = target: T1, human CYP1A2
[7] = target: T2, human CYP2C9
[8] = target: T3, human CYP2C19
[9] = CYP2D6 AC50 (half-maximal activity concentration)
[10] = CYP3A4 AC50 (half-maximal activity concentration)
[11] = CYP1A2 AC50 (half-maximal activity concentration)
[12] = CYP2C9 AC50 (half-maximal activity concentration)
[13] = CYP2C19 AC50 (half-maximal activity concentration)

CYP3A4, sequence (P08684 whole entry): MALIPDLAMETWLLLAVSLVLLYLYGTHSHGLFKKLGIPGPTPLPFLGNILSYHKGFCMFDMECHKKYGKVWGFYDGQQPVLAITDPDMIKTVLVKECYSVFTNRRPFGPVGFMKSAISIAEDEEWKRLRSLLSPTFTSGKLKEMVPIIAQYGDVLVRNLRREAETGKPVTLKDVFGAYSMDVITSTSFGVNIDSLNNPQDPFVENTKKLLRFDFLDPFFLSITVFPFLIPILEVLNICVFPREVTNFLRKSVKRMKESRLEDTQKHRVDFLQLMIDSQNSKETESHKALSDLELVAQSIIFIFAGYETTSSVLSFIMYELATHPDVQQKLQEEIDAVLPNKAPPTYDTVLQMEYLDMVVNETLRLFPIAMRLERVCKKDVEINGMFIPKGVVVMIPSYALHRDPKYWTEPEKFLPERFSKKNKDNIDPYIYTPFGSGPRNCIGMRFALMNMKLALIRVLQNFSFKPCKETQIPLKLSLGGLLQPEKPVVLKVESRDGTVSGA
T2 sequence (P11712 whole entry): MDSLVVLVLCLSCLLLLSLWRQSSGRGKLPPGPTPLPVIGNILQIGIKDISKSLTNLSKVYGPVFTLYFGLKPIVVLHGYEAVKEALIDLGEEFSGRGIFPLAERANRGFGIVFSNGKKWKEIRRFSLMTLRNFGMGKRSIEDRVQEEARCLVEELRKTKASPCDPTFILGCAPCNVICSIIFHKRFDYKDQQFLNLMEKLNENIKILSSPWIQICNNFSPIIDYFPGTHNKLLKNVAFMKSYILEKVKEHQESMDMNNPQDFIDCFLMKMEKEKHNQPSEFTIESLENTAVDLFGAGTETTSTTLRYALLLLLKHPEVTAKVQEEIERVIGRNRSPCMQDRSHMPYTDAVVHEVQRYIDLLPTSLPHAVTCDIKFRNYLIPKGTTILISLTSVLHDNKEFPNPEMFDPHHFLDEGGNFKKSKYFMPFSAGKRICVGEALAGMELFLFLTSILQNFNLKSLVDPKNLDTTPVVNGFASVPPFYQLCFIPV
human CYP2D6, sequence (P10635 whole entry): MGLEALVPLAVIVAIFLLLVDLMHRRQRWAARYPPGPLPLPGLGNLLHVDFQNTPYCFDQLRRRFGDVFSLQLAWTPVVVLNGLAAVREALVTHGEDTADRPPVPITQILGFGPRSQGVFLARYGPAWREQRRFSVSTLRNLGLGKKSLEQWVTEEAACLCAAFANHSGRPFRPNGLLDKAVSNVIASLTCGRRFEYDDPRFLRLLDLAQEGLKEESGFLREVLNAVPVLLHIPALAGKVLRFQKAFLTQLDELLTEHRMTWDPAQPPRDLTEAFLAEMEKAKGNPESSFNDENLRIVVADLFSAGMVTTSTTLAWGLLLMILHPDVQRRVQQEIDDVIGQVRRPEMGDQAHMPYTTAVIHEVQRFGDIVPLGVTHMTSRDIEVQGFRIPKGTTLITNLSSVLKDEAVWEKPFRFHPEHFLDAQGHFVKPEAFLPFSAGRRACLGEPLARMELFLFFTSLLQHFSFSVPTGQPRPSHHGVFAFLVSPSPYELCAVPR
T3 sequence (P33261 whole entry): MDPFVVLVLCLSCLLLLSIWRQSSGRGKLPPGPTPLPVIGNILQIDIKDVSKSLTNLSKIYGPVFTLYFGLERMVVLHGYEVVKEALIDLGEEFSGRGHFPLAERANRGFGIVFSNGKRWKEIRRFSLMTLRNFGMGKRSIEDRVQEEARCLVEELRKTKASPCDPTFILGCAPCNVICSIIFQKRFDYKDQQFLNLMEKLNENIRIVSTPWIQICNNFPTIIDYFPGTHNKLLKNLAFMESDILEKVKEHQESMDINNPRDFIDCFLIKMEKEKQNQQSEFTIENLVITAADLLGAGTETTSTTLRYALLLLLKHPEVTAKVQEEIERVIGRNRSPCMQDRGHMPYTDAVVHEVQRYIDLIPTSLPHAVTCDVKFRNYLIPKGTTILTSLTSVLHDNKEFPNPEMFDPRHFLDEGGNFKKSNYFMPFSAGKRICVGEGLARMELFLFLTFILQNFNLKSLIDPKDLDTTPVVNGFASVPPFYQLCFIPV

Compound | AC50 [4, 9] [µM] | AC50 [5, 10] [µM] | AC50 [1, 11] [µM] | AC50 [2, 12] [µM] | AC50 [3, 13] [µM] | also measured
COC(=O)C(C)Oc1ccc(Oc2ncc(C(F)(F)F)cc2Cl)cc1 (stereo not shown) [Haloxyfop-methyl] | – | – | – | – | – | AC50 [1]: 46.8 µM; AC50 [2]: 5.74 µM; AC50 [3]: 50.9 µM; AC50 [4]: 46.8 µM; AC50 [5]: 27.8 µM
O=C(NC1CCN(CCc2c[nH]c3ccccc23)CC1)c1ccccc1 [Indoramin hydrochloride] | 4.31 | 15.6 | – | – | – | CYP1A2 AC50 (half-maximal activity concentration) [6]: Inactive; CYP2C9 AC50 (half-maximal activity concentration) [7]: Inactive; CYP2C19 AC50 (half-maximal activity concentration) [8]: Inactive
O=C(C(=O)c1ccccc1)c1ccccc1 [1,2-Diphenylethanedione] | 29.4 | 35.4 | 12.1 | 1.13 | 14.8 | –
CCOC(=O)C(C)Oc1ccc(Oc2cnc3cc(Cl)ccc3n2)cc1 (stereo not shown) [Quizalofop-ethyl] | 42.5 | 12.3 | 36.3 | 17.4 | 36.2 | –
O=C1C=CC(=O)N1c1ccc(Cc2ccc(N3C(=O)C=CC3=O)cc2)cc1 [Bismaleimide] | 43.6 | 56.6 | 23.9 | 4.93 | 8.29 | –
Cc1ccc(C(=O)c2ccccc2)cc1 [4-Methylbenzophenone] | 46.2 | 16 | 34.3 | 34.3 | 13.3 | –
CC(C)C(O)(c1ccc(OC(F)(F)F)cc1)c1cncnc1 (stereo not shown) [Flurprimidol] | – | – | – | – | – | IC50 ([1]; CYP1A2 IC50 (half-maximal inhibitory concentration)): 63.3 µM; IC50 ([3]; CYP2C19 IC50 (half-maximal inhibitory concentration)): 2.67 µM; IC50 ([4]; CYP2D6 IC50 (half-maximal inhibitory concentration)): 10.3 µM; IC50 ([5]; CYP3A4 IC50 (half-maximal inhibitory concentration)): 0.54 µM
CCCSP(=O)(OCC)Oc1ccc(Br)cc1Cl (stereo not shown) [Profenofos] | 13.8 | 3.25 | 4.52 | 9.76 | 4.22 | –
OC1(c2ccc(Cl)c(C(F)(F)F)c2)CCN(CCCC(c2ccc(F)cc2)c2ccc(F)cc2)CC1 [Penfluridol] | – | – | – | – | – | AC50 [1]: 29.9 ± 4.12 µM; AC50 [2]: 10.3 ± 1.85 µM; AC50 [3]: 16.6 ± 4.88 µM; AC50 [4]: 5.85 ± 1.65 µM; AC50 [5]: 2.39 ± 0.41 µM
COc1ccc(C(=O)c2ccc(C)cc2)c(O)c1 [Mexenone] | 56.1 | 6.22 | 16.1 | 14.7 | 5.89 | –
CC(=O)[C@H]1CC[C@H]2[C@@H]3CCC4=CC(=O)CC[C@]4(C)[C@H]3CC[C@]12C [Progesterone] | 47.7 | 2.35 | 29.9 | 26.5 | 4.06 | –
O=C(c1ccccc1)C(O)c1ccccc1 (stereo not shown) [Benzoin] | 36.7 | 22.8 | 22.6 | 2.27 | 15.8 | –
CCCCC(CC)COP(=O)(O)OCC(CC)CCCC (stereo not shown) [Bis(2-ethylhexyl) phosphate] | 56.6 | 37.6 | 82.9 | 16.5 | 40.6 | –
CCOP(=O)(Sc1ccccc1)Sc1ccccc1 [Edifenphos] | 42.7 | 8.65 | 13 | 29.7 | 8.61 | –
Oc1c(Br)cc(Br)cc1Br [2,4,6-Tribromophenol] | 68.4 | 72.8 | 51.7 | 38.5 | – | CYP2C19 AC50 (half-maximal activity concentration) [8]: Inconclusive inhibitor
CC[N+](C)(CC)CCOC(=O)C1c2ccccc2Oc2ccccc21 [Methantheline bromide] | 3.29 | 15.6 | – | – | – | CYP1A2 AC50 (half-maximal activity concentration) [6]: Inconclusive inhibitor; CYP2C9 AC50 (half-maximal activity concentration) [7]: Inactive; CYP2C19 AC50 (half-maximal activity concentration) [8]: Inactive
c1ccc(CSCc2ccccc2)cc1 [Benzyl sulfide] | 61.9 | 7.5 | 27.3 | 29.8 | 5.94 | –
CN(C/C=C/c1ccccc1)Cc1cccc2ccccc12 [Naftifine hydrochloride] | 1.06 | 12.4 | 12.5 | 12.5 | 5.52 | –
Oc1c(Cl)c(Cl)c(Cl)c(Cl)c1Cl [Sodium pentachlorophenate] | 2.15 | 71 | 73.9 | – | – | CYP2C19 AC50 (half-maximal activity concentration) [8]: Inactive
CN1CCC(=C2c3ccccc3Sc3ccccc32)CC1 [Pimethixene maleate] | 3.22 | 16.1 | – | – | 21.7 | CYP1A2 AC50 (half-maximal activity concentration) [6]: Inactive; CYP2C9 AC50 (half-maximal activity concentration) [7]: Inactive
Cc1ccccc1OP(=O)(Oc1ccccc1C)Oc1ccccc1C [Tri-o-cresyl phosphate] | 43.3 | 2.11 | 32 | 4.9 | 1.3 | –
COP(=O)(OC)O/C(=C\Cl)c1cc(Cl)c(Cl)cc1Cl [Z-Tetrachlorvinphos] | 56.6 | 2.49 | 2.28 | 38.8 | 5.82 | –
ClC(Cl)(Cl)c1ccc(C(Cl)(Cl)Cl)cc1 [1,4-Bis(trichloromethyl)benzene] | 58.6 | 45.9 | 5.66 | 34.2 | – | CYP2C19 AC50 (half-maximal activity concentration) [8]: Inconclusive inhibitor
COC(=O)c1cc(Oc2ccc(Cl)cc2Cl)ccc1[N+](=O)[O-] [Bifenox] | 25.3 | 5.23 | 20.4 | 7.1 | 2.45 | –
Oc1c(I)cc(I)cc1I [2,4,6-Triiodophenol] | 80.7 | 63.5 | 37.2 | 41.2 | 61.9 | –
COP(=O)(OC)OC(=CCl)c1cc(Cl)c(Cl)cc1Cl [Tetrachlorovinphos] | 33.7 | 3.72 | 3 | 29 | 6.81 | –
CCOC(=O)[C@@H](C)Oc1ccc(Oc2nc3ccc(Cl)cc3o2)cc1 [Fenoxaprop-P-ethyl] | 47.5 | 47.6 | 23.8 | 55 | 62.1 | –
O=C(O)c1cc(Cl)cc(Cl)c1 [3,5-Dichlorobenzoic acid] | 27.8 | 55.5 | 57.8 | 58.9 | – | CYP2C19 AC50 (half-maximal activity concentration) [8]: Inconclusive inhibitor
C#CC(C)N(C)C(=O)Nc1ccc(Cl)cc1 (stereo not shown) [Buturon] | 55.3 | 9.33 | 5.47 | 22.8 | 8.68 | –
O=C1NC2CCCCN2C12CCN(CCCN1c3ccccc3CCc3ccc(Cl)cc31)CC2 (stereo not shown) [Mosapramine] | 6.53 | 6.79 | – | – | – | CYP1A2 AC50 (half-maximal activity concentration) [6]: Inactive; CYP2C9 AC50 (half-maximal activity concentration) [7]: Inconclusive inhibitor; CYP2C19 AC50 (half-maximal activity concentration) [8]: Inconclusive inhibitor
